Data from patent US20230242843A1, “GREEN SOLVENT, LAUNDRY COMPOSITION COMPRISING SAME, AND WASHING MACHINE” (LG HOUSEHOLD & HEALTH CARE LTD., priority 2020, published 2023).

What was measured:
[1] = log P (octanol-water fractionation coefficient); details: for logP: octanol/water
[2] = Composition identification of the solvent after 30 times of washing with solvent reuse; type: physicochemical; details: for Content in solvent collected in the solvent storage tank after final washing: initial 96.0 wt %
Experimental: The washing machines according to Examples and Comparative Examples according to the present disclosure were prepared, and washing was performed under the same conditions. The same type of fibers was put into each washing machine, and a composition including a compound according to the Chemical Formula 1 (wherein R1 and R2 are alkyl having 1 carbon atom, and R3 is hydrogen) was used as a laundry solvent.
At the first washing, the solvent was supplied, the washing was performed for 15 minutes, the solvent was collected while undergoing a drying process, another fiber was put into the washing machine, and the collected solvent was re-supplied for washing. 30 times of washing in total were performed in the same way, without replacement of the solvent storage tank or cartridge during the washing process.

logP [1] | SMILES | also measured
2.19 | Cc1cc(O)c(C)c(O)c1C(=O)O [2,4-Dihydroxy-3,6-dimethylbenzoic acid] | 
1.63 | Cc1nc(N(C)C)nc(O)c1C [2-(dimethylamino)-5,6-dimethylpyrimidin-4-ol] | 
4.68 | CCCCCCC(C=O)=Cc1ccccc1 [Alpha-hexyl cinnamaldehyde, reference compound] | 
 | CC1(C)OCC(CO)O1 (stereo not drawn) [Chemical Formula 1, solketal] | Amount decomposed into acetone and glycerol ([2]; 30 washings, conventional washing machine (Comparative Example 2-1)): approximately 30 wt %; Content in solvent collected in the solvent storage tank after final washing ([2]; 30 washings, washing machine of Comparative Example 2-1 (conventional)): 69.0 wt %; Content in solvent collected in the solvent storage tank after final washing ([2]; 30 washings, washing machine of Example 2-1): 91.4 wt %; Content in solvent collected in the solvent storage tank after final washing ([2]; 30 washings, washing machine of Example 2-2): 92.7 wt %; Content in solvent collected in the solvent storage tank after final washing ([2]; 30 washings, washing machine of Example 2-3): 94.1 wt %; Content in solvent collected in the solvent storage tank after final washing ([2]; 30 washings, washing machine of Example 2-4): 94.9 wt %; Content in solvent collected in the solvent storage tank after final washing ([2]; 30 washings, washing machine of Example 2-5): 95.5 wt %; Amount decomposed ([2]; after 30 times of washing, washing machine according to an example embodiment): less than 10 wt %; Log P ([1]; octanol-water): approximately 1.07
1.13 | Oc1cccc(O)c1 [Resorcinol] | 
0.71 | COc1cc(C=O)ccc1O [Vanillin] | 

SMILES | logP [1] | also measured
CCCCOCCOCCO [2-(2-butoxyethoxy)ethanol] | 0.65 | 
CCOC(=O)c1ccccc1C(=O)O [2-(ethoxycarbonyl)benzoic acid] | 1.8 | 
OCCO [Ethylene glycol, reference compound] | -1.93 | 
CC(C)=CCC/C(C)=C/CO [Geraniol] | 3.47 | 
